Assay results reported in the supplement of paper PMC10307832.

Columns and labels:
Assay in all cases: relative viability (nuclei count vs DMSO), 5 days (fraction); higher = more cells survive
[1] = compound: C1COCCN1C2=NC(=NC3=C2OC4=C3C=CC=N4)C5=CC(=CC=C5)NC(=O)C6=CN=C(C=C6)N + CC(C)C[C@H](NC(=O)[C@H](Cc1ccccc1)NC(=O)c1cnccn1)B(O)O [Bortezomib] (partner 0.002 µM)
How it was run: (§1)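 After 5 days of treatment, lung cancer cells in 1536-well plates were fixed and stained in a single step (final 0.05% Triton X-100, 1% formaldehyde, 1 ug/ml Hoechst) and their nuclei counted on 4× images. Treatment had been applied by pin tool the day after seeding as one drug alone or as a fixed anchor-drug dose with five library-drug doses (not always all listed) in √10 steps. Relative viability is the nuclei count of treated wells divided by that of vehicle wells, and values are medians of duplicate plates.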

SGI-1776 + Crizotinib = compound: CN1CCC(CNc2ccc3ncc(-c4cccc(OC(F)(F)F)c4)n3n2)CC1 [SGI-1776] + C[C@@H](Oc1cc(-c2cnn(C3CCNCC3)c2)cnc1N)c1c(Cl)ccc(F)c1Cl [Crizotinib] (partner 1 µM)
How it was run: as §1

SGI-1776 + Bortezomib = compound: CN1CCC(CNc2ccc3ncc(-c4cccc(OC(F)(F)F)c4)n3n2)CC1 [SGI-1776] + CC(C)C[C@H](NC(=O)[C@H](Cc1ccccc1)NC(=O)c1cnccn1)B(O)O [Bortezomib] (partner 0.002 µM)
How it was run: as §1

SGI-1776 + Dasatinib = compound: CN1CCC(CNc2ccc3ncc(-c4cccc(OC(F)(F)F)c4)n3n2)CC1 [SGI-1776] + Cc1nc(Nc2ncc(C(=O)Nc3c(C)cccc3Cl)s2)cc(N2CCN(CCO)CC2)n1 [Dasatinib] (partner 0.075 µM)
How it was run: as §1

Cell Line | relative viability ([1]; first compound 0.02 µM) | relative viability ([1]; first compound 0.06325 µM) | relative viability ([1]; first compound 0.2 µM) | relative viability ([1]; first compound 0.6325 µM) | relative viability ([1]; first compound 2 µM) | relative viability (SGI-1776 + Crizotinib; first compound 0.08 µM) | relative viability (SGI-1776 + Crizotinib; first compound 0.8 µM) | relative viability (SGI-1776 + Crizotinib; first compound 2.53 µM) | relative viability (SGI-1776 + Crizotinib; first compound 8 µM) | relative viability (SGI-1776 + Bortezomib; first compound 0.08 µM) | relative viability (SGI-1776 + Bortezomib; first compound 0.8 µM) | relative viability (SGI-1776 + Bortezomib; first compound 2.53 µM) | relative viability (SGI-1776 + Bortezomib; first compound 8 µM) | relative viability (SGI-1776 + Dasatinib; first compound 0.08 µM) | relative viability (SGI-1776 + Dasatinib; first compound 0.8 µM) | relative viability (SGI-1776 + Dasatinib; first compound 2.53 µM) | relative viability (SGI-1776 + Dasatinib; first compound 8 µM)
EBC-1 | 0.541 | 0.521 | 0.431 | 0.455 | 0.417 | 0.21 | 0.175 | 0.186 | 0.123 | 0.6 | 0.548 | 0.514 | 0.304 | – | – | – | –
NCI-H1792 | 1.2 | 0.905 | 0.994 | 0.86 | 0.374 | 1.04 | 1.05 | 0.965 | 1.09 | 0.94 | 0.941 | 0.977 | 1.01 | 0.781 | 0.742 | 0.637 | 0.491
NCI-H2347 | 1.2 | 0.922 | 1.01 | 0.784 | 0.73 | 0.687 | 0.637 | 0.772 | 0.511 | 1.04 | 0.961 | 1.15 | 0.897 | 0.346 | 0.319 | 0.306 | 0.265
ABC-1 | 0.311 | 0.315 | 0.288 | 0.298 | 0.302 | 0.989 | 1.17 | 0.707 | 0.317 | 0.299 | 0.323 | 0.364 | 0.241 | 0.502 | 0.613 | 0.508 | 0.465
SK-MES-1 | – | – | – | – | – | 1.11 | 0.947 | 1.02 | 0.979 | – | – | – | – | 0.476 | 0.415 | 0.35 | 0.211
A549 | – | – | – | – | – | 0.789 | 0.843 | 0.553 | 0.138 | – | – | – | – | – | – | – | –
NCI-H1299 | 1.06 | 1.05 | 1.02 | 1.03 | 0.798 | 0.969 | 0.969 | 0.917 | 0.807 | 1.02 | 1.04 | 1.02 | 1.04 | – | – | – | –
NCI-H1793 | – | – | – | – | – | – | – | – | – | – | – | – | – | 0.395 | 0.332 | 0.382 | 0.405
NCI-H1623 | – | – | – | – | – | – | – | – | – | – | – | – | – | 0.658 | 0.608 | 0.559 | 0.538
NCI-H2170 | – | – | – | – | – | 1.13 | 1.28 | 1.17 | 0.969 | – | – | – | – | 0.651 | 0.527 | 0.354 | 0.434
NCI-H1395 | – | – | – | – | – | – | – | – | – | – | – | – | – | 0.381 | 0.379 | 0.394 | 0.373
HCC-44 | 0.933 | 1 | 0.849 | 0.943 | 0.726 | 0.818 | 0.828 | 0.867 | 0.764 | 0.942 | 0.908 | 0.98 | 0.895 | – | – | – | –
NCI-H522 | – | – | – | – | – | – | – | – | – | – | – | – | – | 0.828 | 0.849 | 0.843 | 0.729
Calu-6 | 1.1 | 1.18 | 0.919 | 0.957 | 0.806 | 0.806 | 0.624 | 0.402 | 0.289 | 0.954 | 1.06 | 0.954 | 0.658 | – | – | – | –
LK-2 | – | – | – | – | – | 0.228 | 0.228 | 0.258 | 0.25 | – | – | – | – | 0.301 | 0.354 | 0.253 | 0.173
